Laboratory results as given in US20110015223A1, “Compounds and methods for treatment of cancer-related anemia” (FibroGen, Inc., priority 2006, published 2011).
Marks after values point to notes of the source that are not given here.

Assays:
[1] = tested on: H-460-GFP human lung tumor-bearing nude mice (orthotopically xenografted); assay: Plasma erythropoietin (EPO) by ELISA in nude mice with orthotopic H-460-GFP lung tumors (Example 3); type: in vivo; details: orthotopic H-460-GFP tumors; for plasma EPO levels compared to vehicle-treated control animals: in words, Compound A 20 or 60 mg/kg, Compounds C, D, E 20 mg/kg
Description: (§1) The effectiveness of administration of compounds of the present invention at preventing the development of anemia of cancer or at treating anemia of cancer in an animal model of cancer was examined. […] Genetically-engineered tumors of GFP-transfected H-460 cells were used in this study. The human H-460 lung cancer cell line used was obtained from the National Cancer Institute. […] Compounds were administered three-times per week
Plasma was isolated from these animals 6 hours following administration of the final dose of compound. Plasma erythropoietin (EPO) levels were determined by ELISA.

[2] = tested on: OVCAR3 tumor-bearing female CB.17 SCID mice; assay: Hematocrit in OVCAR3 ovarian tumor-bearing SCID mice (Example 5, FIG. 2); type: in vivo; details: in words (FIG. 2); 60 mg/kg; 29 days treatment
Source text: Tumors used in this study were OVCAR3 ovarian tumors. OVCAR3 tumor fragments (1 mm^3) were implanted subcutaneously into the flanks of female CB.17 SCID mice. The number of animals in each treatment group was 10. […] After 29 days treatment, animals were sacrificed and blood was collected for determination of hematocrit (HCT).

[3] = tested on: H-460-GFP human lung tumor-bearing nude mice (orthotopically xenografted); assay: RBC, HGB and HCT in nude mice with orthotopic H-460-GFP lung tumors (Example 3); type: in vivo; details: 20 mg/kg three-times per week; whole blood 6 hours after final dose; orthotopic H-460-GFP tumors; mean +/- SD
Description: as §1
Whole blood was collected from these animals 6 hours following administration of the final dose of compound. Various measurable blood parameters indicative of erythropoiesis and treatment of anemia (red blood cell count, hemoglobin, and hematocrit) were analyzed.

[4] = tested on: A549 human lung tumor-bearing nude mice; assay: Plasma erythropoietin (EPO) by ELISA in nude mice with subcutaneous A549 lung tumors (Example 2); type: in vivo; details: for Mean [EPO]: four weeks, plasma 6 hours after final dose; for plasma EPO levels compared to vehicle-treated control animals: in words, Compound A 20 or 60 mg/kg, Compound C 20 mg/kg, Compound D 20 or 60 mg/kg as worded in text
Source text: (§2) Immuno-compromised athymic CD-1 nu/nu nude mice males (5-6 weeks old) were used in this study (Charles River Laboratories, Wilmington, Mass.). Animals were maintained in a HEPA-filtered environment during the experimental period. Cages, food, and bedding were autoclaved. Animal diets were obtained from Harlan Teklad (Madison, Wis.).
Compounds of the invention were formulated in an aqueous vehicle consisting of 0.1% (w/w) Polysorbate 80 (JT Baker) and 0.5% (w/w) high viscosity carboxymethyl cellulose sodium (Spectrum) to achieve a final 10 ml/kg dosing (oral gavage).
The A549 human lung cancer cell line was used. This cell line has been characterized extensively.
(§3) A stock tumor was developed by subcutaneoulsy injecting an A549 cell suspension into stock mice. The resulting tumor was maintained subcutaneously as tumor stock prior to use. Tumor implantation was performed when the stock tumors were in log phase of growth. […] Necrotic tissues were dissected away and viable tissues were cut into 1-2 mm^2 pieces. Tumor fragments were then transplanted subcutaneously to the right flank of the nude mice.
Administration of compounds of the present invention (administered three-times per week) was initiated when the inoculated tumors reached approximately 100 mm^3, and continued for four weeks thereafter.
Plasma was isolated from the animals 6 hours following administration of the final dose of compound. Plasma erythropoietin (EPO) levels were determined by ELISA.

[5] = tested on: MDA-MB-435-GFP breast tumor-bearing female CD-1 nude mice; details: in words (FIG. 1); 20 mg/kg or 60 mg/kg; 33 days treatment; MDA-MB-435-GFP breast tumors
Description: The effectiveness of methods and compounds of the present invention at treating or preventing the development of anemia of cancer was examined as follows. In this study, experiments were performed essentially as described above in Example 1, with the following modifications. Tumors used in this study were MDA-MB-435-GFP breast tumors, and surgical orthotopic tumor fragment implantation was done directly into breast tissue of female CD-1 nude animals. The number of animals in each group was 15. […] After mean tumor volume in the vehicle control group exceeded 1 cm^3, animals were sacrificed (33 days treatment) and hematocrit was measured.

[6] = tested on: human H-460 lung cancer tumor-bearing nude mice; assay: Blood parameters in nude mice with subcutaneous H-460 lung tumors (anemia of cancer, Example 1); type: in vivo; details: M, W, F x 4, subcutaneous H-460 tumors, study endpoint
Source text: as §2
Compounds of the invention were pre-formulated in an aqueous vehicle consisting of 0.1% (w/w) Polysorbate 80 (JT Baker) and 0.5% (w/w) high viscosity carboxymethyl cellulose sodium (Spectrum) to achieve a final 10 ml/kg dosing (oral gavage).
as §3, with “The human H-460 lung cancer cell line used” for “A stock tumor”, “obtained from the National Cancer Institute. […]” for “developed by subcutaneoulsy injecting an A549 cell suspension into stock mice.”, “maintained in nude mice” for “maintained”
Treatment (administration of compounds of the present invention) was started when the inoculated tumors reached approximately 100 mm^3, and continued for four weeks.
These include red blood cell counts, hemoglobin, hematocrit, mean corpuscular volume, mean corpuscular hemoglobin, mean corpuscular hemoglobin concentration, red blood cell distribution, reticulocytes, reticulocyte counts, and immature reticulocyte fraction.

[7] = 20 mg/kg three-times per week, plasma 6 hours after final dose
[8] = 20 mg/kg oral gavage three-times per week

Row | Compound | hematocrit levels in OVCAR3 tumor-bearing animals [2] | HCT [3] | HGB [3] [g/dL] | RBC [3] | Average [EPO] [1, 7] [pg/mL] | plasma EPO levels compared to vehicle-treated control animals [1] | Mean [EPO] [4, 8] | plasma EPO levels compared to vehicle-treated control animals [4] | Abs Retic, reticulocyte count ([6]; 20 mg/kg PO) | HCT, hematocrit ([6]; 20 mg/kg PO) [%] | HGB, hemoglobin ([6]; 20 mg/kg PO) [g/dL] | IRF, immature RET fraction ([6]; 20 mg/kg PO) | MCH, mean corpuscular hemoglobin ([6]; 20 mg/kg PO) [pg] | MCHC, MCH concentration ([6]; 20 mg/kg PO) [g/dL] | RDW, RBC distribution width ([6]; 20 mg/kg PO) [%] | RET, reticulocytes ([6]; 20 mg/kg PO) [%] | MCV, mean corpuscular volume ([6]; 20 mg/kg PO) [fL] | RBC, red blood cells ([6]; 20 mg/kg PO) [µL⁻¹] | further results
1 | rhEPO: recombinant human erythropoietin (EPO) | – | – | – | – | – | – | – | – | – | – | – | – | – | – | – | – | – | – | Average [EPO] ([1]; rhEPO group, dose not given, plasma): 215 pg/mL
2 | Cc1nc(C(=O)NCC(=O)O)c(O)c2ccc(Oc3ccccc3)cc12 [Cmpd D, [(4-Hydroxy-1-methyl-7-phenoxy-isoquinoline-3-carbonyl)-amino]-acetic acid] | increased | 45.6 +/− 1.8% | 15.4 ± 0.6 | 9.3 +/− 0.5 | 2176 | elevated | 489 pg/mL | increased | – | – | – | – | – | – | – | – | – | – | Mean [EPO] ([4]; 6 mg/kg oral gavage three-times per week): 455 pg/mL
3 | O=C(O)CNC(=O)c1nc(Cl)c2ccccc2c1O [Cmpd A] | increased | – | – | – | – | – | – | – | 559 | 40.4 | 13.3 | 0.63 | 15.1 | 33.1 | 21.3 | 6.4 | – | – | hematocrit levels compared to non-treated control animals with cancer [5]: increased; Abs Retic, reticulocyte count ([6]; 60 mg/kg PO): 539; HCT, hematocrit ([6]; 60 mg/kg PO): 39.5%; HGB, hemoglobin ([6]; 60 mg/kg PO): 13.5 g/dL; IRF, immature RET fraction ([6]; 60 mg/kg PO): 0.65; MCH, mean corpuscular hemoglobin ([6]; 60 mg/kg PO): 15.6 pg; MCHC, MCH concentration ([6]; 60 mg/kg PO): 34.2 g/dL; RDW, RBC distribution width ([6]; 60 mg/kg PO): 23.6%; RET, reticulocytes ([6]; 60 mg/kg PO): 6.5%
4 | C[C@H](NC(=O)c1ncc2cc(Oc3ccccc3)ccc2c1O)C(=O)O [Cmpd B, (S)-2-[(4-Hydroxy-7-phenoxy-isoquinoline-3-carbonyl)-amino]-propionic acid] | – | – | – | – | – | – | – | – | 552 | 37.7 | 12.7 | 0.56 | 14.5 | 33.7 | 21.7 | 6.3 | 43.0 | 8.78e+06 | Abs Retic, reticulocyte count ([6]; 6 mg/kg PO): 653; HCT, hematocrit ([6]; 6 mg/kg PO): 37.7%; HGB, hemoglobin ([6]; 6 mg/kg PO): 12.7 g/dL; IRF, immature RET fraction ([6]; 6 mg/kg PO): 0.64; MCH, mean corpuscular hemoglobin ([6]; 6 mg/kg PO): 14.6 pg; MCHC, MCH concentration ([6]; 6 mg/kg PO): 33.8 g/dL; MCV, mean corpuscular volume ([6]; 6 mg/kg PO): 43.2 fL; RBC, red blood cells ([6]; 6 mg/kg PO): 8.71e+06 µL⁻¹; RDW, RBC distribution width ([6]; 6 mg/kg PO): 21.4%; RET, reticulocytes ([6]; 6 mg/kg PO): 7.5%
5 | COc1ccc(Oc2ccc3c(O)c(C(=O)NCC(=O)O)ncc3c2)cc1 [Cmpd C, {[4-Hydroxy-7-(4-methoxy-phenoxy)-isoquinoline-3-carbonyl]-amino}-acetic acid] | – | 47.2 +/− 5.6% | 16.3 ± 1.6 | 9.8 +/− 1.1 | 5898 | elevated | 3581* pg/ml | increased | 457 | 41.1 | 14.0 | 0.56 | 14.9 | 34.1 | 22.3 | 4.9 | 43.8 | 9.36e+06 | –
